Assay results as given in paper PMC5238392, “Origin of anti-tumor activity of the cysteine-containing GO peptides and further optimization of their cytotoxic properties” (Scientific Reports, 2017).
Where two headings read alike, the source gives them in different places.

Key:
[1] = test system: human lung carcinoma cell line A549; assay: MTS cell viability assay, A549; type: cell-based
Description: All experiments were conducted in duplicate or triplicate.

ZR-75-1 cells = assay: Caspase 3/7 activation assay (CellEvent / SYTOX), ZR-75-1; type: cell-based, human; conditions: 10 μM, 4 h, Fig. 4D
Source text: A complementary perspective on GO-203-induced apoptosis is provided by the caspase 3/7 activation assay, Fig. 4. In both HT-1080 and ZR-75-1, the data offer a clear view of the early and late apoptotic populations. The time dependence illustrated in Fig. 4E,F confirms that the onset of apoptosis occurs sufficiently rapidly in both cell lines – by the time of flow-cytometry observations the system has already approached the steady state. In the literature there is some evidence that activation of executioner caspases may precede the translocation of phosphatidylserine to the outer leaf of the membrane. While this could be in principle relevant for comparison between the Annexin V assay and caspase activation assay, one should bear in mind that in our case both assays offer a snapshot of a fairly advanced apoptotic process.
Figure 4 GO-203-induced apoptosis in HT-1080 and ZR-75-1 cells as assessed by the double staining with CellEvent caspase-3/7 green detection reagent and vital dye SYTOX. (A–D) Flow cytometry histograms for the cells incubated for 4 h with 10 μM of GO-203 and the untreated (control) cells. (E–G) Apoptotic fractions in the GO-203-treated and untreated (control) cells as a function of incubation time and GO-203 concentration. TEXT PRINTED IN THE PICTURE: (B) GO-203: HT-1080: IV.(0.11 %); HT-1080: III.(64.49 %); HT-1080: I.(12.21 %); HT-1080: II.(23.20 %) | (D) GO-203: ZR-75-1: IV.(0.40 %); ZR-75-1: III.(35.18 %); ZR-75-1: I.(28.95 %); ZR-75-1: II.(35.47 %)
The adherent cells were rinsed with PBS, harvested using trypsin-EDTA solution and suspended in the growth medium. To analyze cell cycle phase distribution, 200 μg/ml of saponin (Fluka, USA), 250 μg/ml RNase A, and 50 μg/ml of propidium iodide (both Sigma-Aldrich, USA) were added to each sample tube, thus obtaining DNA stain buffer. After 1 h incubation at room temperature, the samples were analyzed by flow cytometry. To detect apoptosis by flow cytometry, CellEvent Caspase-3/7 Green Flow Cytometry Assay Kit (Thermo Fisher Scientific, USA) and Annexin-V FITC conjugate (BD Biosciences, USA) in combination with propidium iodide have been employed following the manufacturer’s protocols.
Cell fluorescence was measured using CytoFLEX (Beckman Coulter, USA) flow cytometer equipped with 3 lasers (405, 488 and 633 nm). Cells were gated on FSC/SSC to remove debris. Mean fluorescence intensity from 10,000 cells was acquired.

HT-1080 cells = assay: carboxy-H2DCFDA time-dependent intracellular ROS, HT-1080; type: cell-based, human; conditions: suspended HT-1080; 5 μM
Source text: In broad terms, apoptosis is classified into two fundamental modes: mitochondrial pathway and death receptor pathway. In the former mechanism, apoptotic signals lead to a loss of mitochondrial membrane potential, termination of mitochondrial ATP synthesis, overproduction of reactive oxygen species (ROS) and their release into cytosol along with a number of pro-apoptotic proteins that are normally confined to the intermembrane space of the mitochondria. To determine whether this mechanism is relevant for GO-203-induced cell death, we have analyzed the time variation of mitochondrial membrane potential and cellular level of ROS over the time interval of 2 h following the addition of the peptide. […] The fluorescence was measured concurrently with the side angle light scatter.
To confirm this finding we have also used the carboxy-H2DCFDA probe of the general oxidative stress. […] The results of the ROS assay in HT-1080, where the intensity of fluorescence signal reflects the level of intracellular oxidants, are shown in Fig. 6B. […]
The cells were seeded into 35-mm Nunc culture dishes (Thermo Scientific, USA) at 1.2 × 10^5 cells per dish and allowed to attach for 24 h. […] After that GO-203 was added directly to the suspension and cell fluorescence was measured by flow cytometry at multiple time points during the following 2 hours. […] Cell fluorescence was then immediately measured by flow cytometry. […]

[2] = test system: human fibrosarcoma cell line HT-1080; type: cell-based; conditions: HT-1080
[3] = test system: primary culture of human dermal fibroblasts (DF); assay: MTS cell viability assay, dermal fibroblasts
Description: As a next step, we used MTS assay[27] to examine the effect of GO peptides on the viability of the four described cell cultures as a function of different treatment schemes. […] This treatment regimen is labeled 4 × 5 underneath the graph. Alternatively, we introduced 5 μM of peptide daily while exchanging the medium (denoted 4/5). Unlike the previous protocol, it avoids potential build-up of the peptide in the medium.
The treatment protocols are: 4 × 5 – four daily doses of 5 μM delivered without exchanging the growth medium; 4/5 – four daily doses of 5 μM delivered with exchanged growth medium; 1 × 5, 1 × 10, 1 × 15, and 1 × 20 – a single dose of 5, 10, 15, or 20 μM, respectively. MTS reagent was added to the wells 96 h after the first (and sometimes the only) application of the peptide and the optical density at 492 nm was measured to determine the fraction of the surviving cells.
As a next step, we set out to test the cytotoxic effect of these peptides on the normal cells.
Cell survival was measured using CellTiter 96 AQueous One Solution Cell Proliferation Assay (MTS test, Promega, USA). Cells have been seeded in a 96-well flat-bottom plate in 100 μl of culture medium (10^3 cells/well for A549, HT-1080, dermal fibroblasts and eMSC or 5 × 10^3 cells/well for ZR-75-1) and allowed to attach for 24 h. The starting amount of cells was chosen to account for their growth rate and degree of spreading such as to avoid excessive dilution in the beginning of the experiment or control cell overgrowth toward the end. After 24 h, 10 μl of peptide stock solution or PBS (control) were added to the wells. After 96 h, 20 μl of the MTS-reagent were added to each well and 1–2 h later optical density was measured at the wavelength 492 nm using the 96-well plate reader (Titertek Multiskan, Labsystems, Finland). All experiments were conducted in duplicate or triplicate.

[4] = 1 × 5: single dose of 5 μM, 96 h
[5] = 4/5: four daily doses of 5 μM with exchanged growth medium, 96 h

[R]9CQCRRKN [GO-203]
Cell viability (MTS) [1, 4]: essentially inconsequential | Cell viability (MTS) ([1]; 1 × 20: single dose of 20 μM, 96 h): substantially cytotoxic | Cell viability (MTS) [1, 5]: inefficient | Cell viability (MTS) ([1]; 4 × 5: four daily doses of 5 μM without exchanging growth medium, OD 492 nm 96 h after first application): considerable damage | quadrant I fraction (caspase-3/7 / SYTOX) (ZR-75-1 cells): 28.95% | quadrant II fraction (caspase-3/7 / SYTOX) (ZR-75-1 cells): 35.47% | quadrant III fraction (caspase-3/7 / SYTOX) (ZR-75-1 cells): 35.18% | quadrant IV fraction (caspase-3/7 / SYTOX) (ZR-75-1 cells): 0.40% | Time at which carboxy-H2DCFDA fluorescence (ROS) begins to diverge from control (HT-1080 cells): 80 to 90 min | Time at which elevated level of ROS is evident (HT-1080 cells): 120 min | Cell viability (MTS) [2, 4]: essentially inconsequential | Cell viability (MTS) ([2]; 1 × 10: single dose of 10 μM, 96 h): nearly wipes out | Cell viability (MTS) [2, 5]: inefficient | Cell viability (MTS) ([2]; 4 × 5: four daily doses of 5 μM without exchanging growth medium, OD 492 nm 96 h after first application, duplicate or triplicate): essentially complete cell death | Cell viability (MTS) ([3]; dermal fibroblasts, 1 × 5: single dose of 5 μM, 96 h): essentially inconsequential | Cell viability (MTS) ([3]; dermal fibroblasts, 4/5: four daily doses of 5 μM with exchanged growth medium, 96 h): inefficient | Cell viability (MTS) ([3]; dermal fibroblasts, 4 × 5: four daily doses of 5 μM without exchanging growth medium, OD 492 nm 96 h after first application): essentially complete cell death | Cell viability (MTS) ([3]; skin (dermal) fibroblasts, 1 × 10: single dose of 10 μM, 96 h): nearly wipes out
